The values below come from ChEMBL document CHEMBL2016478, “Lead optimisation of the N1 substituent of a novel series of indazole arylsulfonamides as CCR4 antagonists and identification of a candidate for clinical investigation” (Bioorg Med Chem Lett, 2012).

≈ marks a conversion by molar mass, not a printed value.

For series [1], the target named is T1, C-C chemokine receptor type 4 (Homo sapiens, UniProt P51679).
T1 sequence (P51679 whole entry): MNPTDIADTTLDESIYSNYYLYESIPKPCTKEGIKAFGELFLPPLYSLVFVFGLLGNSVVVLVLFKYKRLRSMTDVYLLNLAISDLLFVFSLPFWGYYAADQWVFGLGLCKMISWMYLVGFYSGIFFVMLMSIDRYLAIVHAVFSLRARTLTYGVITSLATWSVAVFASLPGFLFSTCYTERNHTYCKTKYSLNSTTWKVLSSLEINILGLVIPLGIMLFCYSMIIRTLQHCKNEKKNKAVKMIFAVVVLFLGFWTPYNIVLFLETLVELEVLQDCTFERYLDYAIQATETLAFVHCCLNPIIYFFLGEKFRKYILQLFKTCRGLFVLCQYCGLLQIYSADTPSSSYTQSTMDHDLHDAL
In words: Antagonist activity at human CCR4 expressed in CHO membranes assessed as inhibition of [35S]-GTPgammaS binding by scintillation counting. The series is classed as functional, cell membranes. A general note: GTPγS is a poorly hydrolysed GTP analogue; its binding reports G protein activation.

A short description of series [2]: Solubility of the compound by chemiluminescent nitrogen detection assay. The series is classed as physicochemical.
Series [3] addresses T1, C-C chemokine receptor type 4. The experiment in a line: Antagonist activity at human CCR4 in human whole blood assessed as inhibition of TARC-induced CD4+ CCR4+lymphocyte chemotaxis measuring F-actin content. The following applies: read-out: pA2 (converted). The class given is functional, tissue-based.
Series [4] in a line: Permeability across MDCK cells. The class given is ADME, cell-based, Canis lupus familiaris. The following applies: dog, read-out: permeability.
A short description of series [5]: Clearance in CD rat at 1 mg/kg, iv and 1 mg/kg, po. As to conditions: in vivo.
The nature of series [6]: Volume of distribution at steady state in CD rat at 1 mg/kg, iv and 1 mg/kg, po. The series is classed as ADME, organism-based. As to conditions: in vivo, read-out: Vdss.
A short description of series [7]: Oral bioavailability in CD rat at 1 mg/kg. The class given is ADME, organism-based. The following applies: in vivo.
A short description of series [8]: Oral bioavailability in beagle dog at 1.1 mg/kg. The class given is ADME, organism-based, Canis lupus familiaris. As to conditions: in vivo.
Series [9] can be described thus: Clearance in beagle dog at […], iv and 1.1 mg/kg, po. The class given is ADME, organism-based, Canis lupus familiaris. As to conditions: in vivo.
Series [10] is described as follows: Volume of distribution at steady state in beagle dog at […], iv and 1.1 mg/kg, po. The series is classed as ADME, organism-based, Canis lupus familiaris. The following applies: in vivo, read-out: Vdss.
The subject of the next series is Rattus norvegicus. The experiment in a line: Clearance in CD rat at 1 mg/kg, iv and 1 mg/kg, po relative to liver blood flow. The series is classed as ADME, organism-based. The following applies: in vivo.
In the next series the test system is Canis familiaris. The experiment in a line: Clearance in beagle dog at […], iv and 1.1 mg/kg, po relative to liver blood flow. The class given is ADME, organism-based, Canis lupus familiaris. The following applies: in vivo.
Series [11] deals with T1, C-C chemokine receptor type 4.
Description: Displacement of [125I]TARC from human CCR4 expressed in CHO membranes by SPA
Series [12] can be described thus: Volume of distribution at steady state in beagle dog at 0.54 mg/kg, iv and 1.1 mg/kg, po. The series is classed as ADME, organism-based, Canis lupus familiaris. The following applies: in vivo, read-out: Vdss.

As to `COc1cccc2c1c(NS(=O)(=O)c1ccc(Cl)s1)nn2Cc1cccc(CNC(=O)C(C)(C)O)c1`, the half-maximal inhibitory concentration (IC50) in series [1] was 14.8 nM. Further, the solubility in series [2] worked out at 162 µg/mL (≈ 295 µM). Besides, the Kb in series [3] is 631 nM. For the same compound, the Papp in series [4] was found to be 13.2 ×10⁻⁶ cm/s. Moreover, the clearance came out at 15 mL/min/kg in [5] and 9 mL/min/kg in series [9]. The Vd in series [6] was found to be 1.9 L/kg; in series [10] it was 2.2 L/kg. Also, the bioavailability in series [7] amounted to 85%; in [8], 97%. In addition, the CLH with Rattus norvegicus is listed as 18%; in the series with Canis familiaris, 29%. This compound also showed a Ki in series [11] of 10 nM.

`COc1cccc2c1c(NS(=O)(=O)c1ccc(Cl)s1)nn2Cc1cccc(CNC(=O)CO)c1`: the half-inhibitory concentration (IC50) in series [1] was 27.5 nM. In series [2], this compound registered a solubility of 167 µg/mL (≈ 321 µM). Moreover, the Kb in series [3] is 2000 nM. In addition, affinity in [11] was put at a Ki of 15.8 nM.

The compound `COc1cccc2c1c(NS(=O)(=O)c1ccc(Cl)s1)nn2Cc1cccc(CNC(C)=O)c1` gave a solubility in series [2] of 124 µg/mL (≈ 246 µM). Moreover, the Papp in series [4] was 25.4 ×10⁻⁶ cm/s. The Vd in series [6] is 0.57 L/kg; in [12] it was 3.2 L/kg. Further, the bioavailability in series [7] was determined as 100%; in series [8] it was 49%.

Take `COc1ccc(Cn2nc(NS(=O)(=O)c3ccc(Cl)s3)c3c(OC)cccc32)cc1OC`: in series [1], the IC50 was 22.9 nM. Moreover, the concentration in solution in series [2] (solubility) came to 46 µg/mL (≈ 93.1 µM). The Kb in series [3] is 2510 nM. Moreover, in series [11], affinity was put at a Ki of 20 nM.

In [2], `COc1cccc2c1c(NS(=O)(=O)c1ccc(Cl)s1)nn2Cc1cccc(C(=O)N(C)C)c1` had a solubility of 160 µg/mL (≈ 317 µM).

On to `COc1cccc2c1c(NS(=O)(=O)c1ccc(Cl)s1)nn2Cc1cccc(CO)c1`, for which the IC50 in series [1] is 32.4 nM. Further, the solubility in series [2] was determined as 127 µg/mL (≈ 274 µM). For the same compound, in [3], the Kb was 6310 nM. In [11], this compound showed a Ki of 39.8 nM.

`COc1cccc2c1c(NS(=O)(=O)c1ccc(Cl)s1)nn2Cc1ccccc1CO`: the IC50 in series [1] is 324 nM. In addition, in series [2], the solubility stood at 74 µg/mL (≈ 159 µM). Besides, the Ki in series [11] was 251 nM.

Take `COc1cccc2c1c(NS(=O)(=O)c1ccc(Cl)s1)nn2Cc1ccc(CO)cc1`: the IC50 in series [1] is 47.9 nM. Besides, the solubility in series [2] is 123 µg/mL (≈ 265 µM). In addition, the Ki in series [11] was 50.1 nM.

On to `COc1cccc(Cn2nc(NS(=O)(=O)c3ccc(Cl)s3)c3c(OC)cccc32)c1`, for which the IC50 in series [1] is 158 nM. Further, the solubility in series [2] worked out at 12 µg/mL (≈ 25.9 µM). In addition, the Ki in series [11] was 126 nM.

The compound `COc1ccccc1Cn1nc(NS(=O)(=O)c2ccc(Cl)s2)c2c(OC)cccc21` had a solubility in series [2] of 12 µg/mL (≈ 25.9 µM). The compound also showed a Ki in series [11] of 158 nM.

Compound `COc1ccc(COc2nc(Br)cnc2NS(=O)(=O)c2ccc(C)cc2)cc1OCCN(C)C` returned a solubility in series [2] of 170 µg/mL (≈ 308 µM).

With `COc1cccc2c1c(NS(=O)(=O)c1ccc(Cl)s1)nn2Cc1cccc(CNC(=O)C(C)O)c1` (centres undefined), in [1], the half-maximal inhibitory concentration (IC50) was 12.6 nM. The same compound returned a solubility in [2] of 146 µg/mL (≈ 273 µM). Also, the Kb in [3] was 631 nM. Further, affinity in [11] was put at a Ki of 7.94 nM.

For the compound `COc1cccc2c1c(NS(=O)(=O)c1ccc(Cl)s1)nn2Cc1cccc(CN(C)C(C)=O)c1`, the IC50 in [1] is 129 nM. This compound came in with a solubility in [2] of 151 µg/mL (≈ 291 µM).

Consider `COc1ccc(Cn2nc(NS(=O)(=O)c3ccc(Cl)s3)c3c(OC)cccc32)cc1`, for which the concentration in solution in series [2] (solubility) came to 7 µg/mL (≈ 15.1 µM). In series [11], this compound showed an inhibition constant Ki of 251 nM.

In turn, `COc1cccc2c1c(NS(=O)(=O)c1ccc(Cl)s1)nn2Cc1ccc(CNC(C)=O)cc1` came in with a solubility in [2] of 104 µg/mL (≈ 206 µM). For the same compound, the inhibition constant Ki in series [11] is 158 nM.

For the compound `COc1cccc2c1c(NS(=O)(=O)c1ccc(Cl)s1)nn2Cc1ccccc1`, the half-maximal inhibitory concentration (IC50) in series [1] was 389 nM. Besides, the solubility in series [2] was determined as 1 µg/mL (≈ 2.3 µM). The Kb in [3] is 6310 nM. The inhibitory constant (Ki) in [11] was 251 nM.

For the compound `CNC(=O)c1cccc(Cn2nc(NS(=O)(=O)c3ccc(Cl)s3)c3c(OC)cccc32)c1`, the 50% inhibitory concentration (IC50) in series [1] is 79.4 nM. The same compound yielded a solubility in series [2] of 167 µg/mL (≈ 340 µM). Also, the Ki in series [11] was 316 nM.

For `COc1cccc2c1c(NS(=O)(=O)c1ccc(Cl)s1)nn2Cc1cccc(CN)c1`, in series [1], the IC50 is 91.2 nM. In addition, the concentration in solution in series [2] (solubility) was 17 µg/mL (≈ 36.7 µM). Also, the Kb in [3] is 1000 nM. In addition, in [11], the inhibitory constant (Ki) is 100 nM.

Consider `COc1cccc2c1c(NS(=O)(=O)c1ccc(Cl)s1)nn2Cc1cccc(C(N)=O)c1`, for which the IC50 in [1] was 55 nM. The concentration in solution in [2] (solubility) was 140 µg/mL (≈ 294 µM). Also, the Kb in series [3] was 1580 nM. For the same compound, in series [11], the inhibition constant (Ki) was 39.8 nM.

What is called IC50 is the concentration at which inhibition is half-maximal. What is called solubility is the concentration that dissolves in the medium under given conditions. Usually bioavailability stands for dose-corrected exposure relative to a reference, in per cent. A word on the Ki: it is a measure of affinity in units of concentration, obtained from inhibition or displacement. A lower Ki goes with higher affinity.
